Test [1] concerns the target Prp8 intein (Cryptococcus gattii, UniProt E6R027). The test can be described thus: MIG-Prp8 in-gel splicing assay. The conditions noted are these: E. coli lysate, TCEP-triggered. The format is biochemical.
Protocol: The MIG-Prp8 and Prp8-GFP in-gel splicing assays—The MIG Prp8 and Prp8-GFP splicing assays were carried out as described. […] The samples were analyzed in SDS-PAGE without boiling. The gels were quantified using GFP fluorescence and Coomassie blue staining with the Bio-Rad Gel Doc EZ.
This reporter system, MIG-Prp8, comprising a fusion protein of the Prp8 intein flanked by maltose binding protein (MBP) and green fluorescent protein (GFP), allowed observation of functional Prp8 intein splicing in Escherichia coli lysate. […] C-terminal cleavage product (CC; GFP) could also be visualized.
The subject of test [2] is Prp8 intein. Nature of the test: Western blot of Prp8 intein splicing in C. neoformans H99. The format is cell-based. The conditions noted are these: 0.32 μg/ml, 3 h post-treatment. The protocol: Western blot (WB)—Fresh colonies of Cryptococcus neoformans were grown in yeast extract peptone dextrose (YPD) broth in an environmental shaker (250 rpm) overnight at 30° C. The fungal cells (5 ml) were diluted in 125 ml YPD broth and grown for 1.5 h to a final cell density of 0.2 at OD530. The cells were distributed to test tubes (3 ml/tube). Then 3 ml of YPD medium containing DMF or 2-fold diluted compounds was added to the cells. The mixtures were incubated at 30° C. in a shaker at 250 RPM for up to 18 h. Samples were spun down and pellets were frozen for WB analysis.
Cryptococcal cells treated with DMF or compounds were washed twice with PBS buffer. Cells were spun down and supernatant was removed. For a 6-ml cell pellet, 30 μl of complete protease inhibitor cocktail in PBS was added to the cells, followed by addition of 400 μl lysis buffer (50 mM Tris, pH 8.0, 500 mM NaCl, 10% glycerol) and 500 μl glass beads. The fungal cells were lysed by rigorous beating for 2 min 3 times. The cell lysate was spun down. Supernatant was mixed with SDS-PAGE loading buffer (1:1). The mixtures were boiled at 95° C. for 10 min, followed by centrifugation at 15,000 rpm for 10 min. Samples were analyzed using 12% SDS-PAGE. The separated samples were blotted to a PVDF membrane and subjected to WB analysis using an antibody against the Prp8 intein. […]

Test [3] relates to C. neoformans H99. Nature of the test: Checkerboard assay. The class given is cell-based, Cryptococcus neoformans. As for the experimental part: Compounds were initially dissolved in DMSO and diluted in RPMI-1640-MOPS media four times the targeted final concentration and 50 μl was added per well. The second compound was similarly diluted and 50 μl was added per well, to a final volume of 100 μl/well. C. neoformans […] inoculum (100 μl) prepared from freshly grown cultures and diluted to an absorbance of 0.1 at 530 nm in water and further diluted (1:500) in RPMI-1640-MOPS was added to each well. To determine the fungicidal concentration of a compound, the wells with no visible growth were serially diluted, plated on SDA, and incubated at 30° C. for 48-72 h for the recovery of colony-forming units. Additionally, the cell density of treated and untreated wells was also estimated by reading absorbance at 630 nm using an EL808 reader (Bio-Tek). Percentage of inhibition compared to that of the no-drug-control well was calculated. […] Fractional inhibitory concentration (FIC) index value is calculated as the […]. The FIC index value is then used to categorize the interaction of the two compounds tested. […] Doern, C., “When Does 2 plus 2 Equal 5?A Review of Antimicrobial Synergy Testing,” Journal of Clinical Microbiology 52(12):4124-4128 (2014), which is hereby incorporated by reference in its entirety.

Test [4] addresses T1, papain (Carica papaya, UniProt P00784).
T1 construct: purchased Sigma-Aldrich
T1 sequence (P00784 134-345): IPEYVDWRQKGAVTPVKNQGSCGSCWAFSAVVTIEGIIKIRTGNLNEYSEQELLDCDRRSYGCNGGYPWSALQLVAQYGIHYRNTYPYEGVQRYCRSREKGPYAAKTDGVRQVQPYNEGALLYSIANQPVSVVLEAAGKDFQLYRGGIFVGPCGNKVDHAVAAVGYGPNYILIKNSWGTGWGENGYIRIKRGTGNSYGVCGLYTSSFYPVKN
Nature of the test: Papain protease inhibition (Abz FRET substrate). The format is biochemical. The note with it: compound at 400 μM. As for the experimental part:
Trypsin and papain protease inhibition—An Abz FRET substrate (Abz-RRRRSAG-nTyr) developed previously (Li et al., “Existing Drugs as Broad-Spectrum and Potent Inhibitors for Zika Virus by Targeting NS2B-NS3 Interaction,” Cell Research 27(8):1046-1064 (2017), which is hereby incorporated by reference in its entirety) was used as the substrate for inhibition of trypsin and papain proteases. In black and clear-bottom 96-well plates, 1 μg trypsin (Sigma-Aldrich) was incubated with DMF or compounds at 400 μM at 25° C. for 30 min in a 70 μl reaction buffer containing 20 mM Tris, pH 8.0, 100 mM NaCl, 5% Glycerol, and 0.05% CHAPS. For papain, 1 μg Papain (Sigma-Aldrich) was incubated with compounds at 400 μM at 25° C. for 30 min in a 70 μl reaction buffer composed of 1.1 mM EDTA, 0.067 mM β-mercaptoethanol, 5.5 mM cysteine. […]

In test [5] the test system is Candida albicans. Nature of the test: Fungal susceptibility test, broth microdilution MIC. The note with it: microdilution assay. The format is cell-based. As for the experimental part:
Fungal susceptibility test—The fungal susceptibility test was carried out with a compound concentration series as described. Li et al., “Cisplatin Protects Mice From Challenge of Cryptococcus neoformans by Targeting the Prp8 Intein,” Emerging Microbes & Infections 8(1):895-908 (2019), which is hereby incorporated by reference in its entirety. The broth microdilution method was used to determine the compound MIC values against C. neoformans. In brief, serial 2-fold dilutions of the 6G-318SS (20 to 0.03 μg/ml) were made in 100 μl RPMI-1640 medium with MOPS in 96-well U-bottom plates. The C. neoformans H99 strain (100 μl of 0.5×10^5/ml) in log phase was added to each well. […] The MIC break-point was defined as no visible fungal growth by naked eye or by determining the 90% growth inhibition using absorbance at 630 nm, compared with no inhibitor control in a 96-well plate.
C. albicans, a fungus without the Prp8 intein, was also used as a control.

For test [6], the system named is C. neoformans (H99). Nature of the test: In vivo preliminary efficacy study, intranasal infection of BALB/c mice. Set-up: species or system Cryptococcus neoformans. The conditions noted are these: 75 mg/kg oral gavage once daily. The protocol: FIG. 7 illustrates efficacy of 6G318S in mouse models. BALB/c mice (5-6 wk old, male and female were dosed orally by either vehicle control (VC) or 6G318S-75 mg/kg once daily for 5 days. On day 5, all mice were euthanized, lungs were collected, weighed and homogenized in RPMI-1640-MOPS media. Serial 10-fold dilution of the homogenate is made and a volume of 100 ul is plated on to Sabouraud Dextrose-agar plates with antibiotics. Colonies were counted on day 3 and normalized to weight of the lung.
Treatment was given for 6 days. On day 6 few mice were euthanized to check the […] in lungs.

Converted amounts (≈) assume the structure as drawn.

Sequence of Prp8 intein (Cryptococcus gattii, UniProt E6R027) (E6R027 entry or part of it): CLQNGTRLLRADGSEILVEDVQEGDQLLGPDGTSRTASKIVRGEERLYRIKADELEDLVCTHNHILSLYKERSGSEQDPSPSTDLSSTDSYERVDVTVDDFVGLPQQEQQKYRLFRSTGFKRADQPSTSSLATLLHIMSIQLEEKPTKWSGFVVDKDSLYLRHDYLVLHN

The MIC is the lowest concentration that inhibits growth of the organism. Regarding `O=C(Nc1ccc(F)cc1)c1nnsc1S(=O)(=O)c1ccc(Cl)cc1` [6G-318S, 5-[(4-chlorophenyl)sulfonyl]-N-(4-fluorophenyl)-1,2,3-thiadiazole-4-carboxamide], the “inhibition of MIG-Prp8 splicing” value in test [1] was “accumulation of the MIG-Prp8 precursor PP and decrease of LE product in a dose-dependent manner”. The “inhibition of Prp8 splicing in vivo in C. neoformans” value in test [2] is listed as “completely inhibited Prp8 splicing”. For the same compound, the MIC is 1 µg/mL in test [3] (Cryptococcus neoformans, H99, 48 h) and 5 µg/mL (≈ 12.6 µM) in test [5]. Also, the Effect entry in test [3] (combination 6G-318S + 5-FC) is recorded as “Additive (>0.5 to 1 is additive)”; in test [3] (combination 6G-318S + AmB), “Synergistic (FIC index value of ≤0.5 is considered as synergy)”; in test [3] (combination 6G-318S + IZ), “Additive (>0.5 to 1 is additive)”; in test [3] (combination 6G-318S + Vor) it was “Indifferent (>1 to 4 is indifferent)”. For the same compound, the MIC-comb in test [3] (combination 6G-318S + 5-FC, well D6) was 0.500 µg/mL; in test [3] (combination 6G-318S + AmB, well F6), 0.125 µg/mL; in test [3] (combination 6G-318S + IZ, well D6), 0.500 µg/mL; in test [3] (combination 6G-318S + Vor, well G3), 0.063 µg/mL. For the same compound, in test [4], the “inhibition of papain protease activity” value is recorded as “neither 6G-318S, 6G-319S, nor cisplatin significantly inhibited”. The “fungal cells in lungs versus vehicle controls” value in test [6] is reported as “indication of reduction of fungal cells in lungs”.

(Values after patent US20230233533A1, “COMPOSITIONS, METHODS OF TREATING AND PREVENTING FUNGAL INFECTIONS, AND METHODS OF INHIBITING PRP8 INTEIN EXPRESSION” (Health Research, Inc., priority 2020, published 2023).)
